The source of these data is patent publication US8735353B2, “Polypeptides and uses thereof” (priority 2009, dated 2014).

Experiment [1] relates to human peripheral blood monocytes. Description: TNF-α assay in human peripheral blood monocytes. The experiment is classed as cell-based. The settings on record: 10 ng/ml E. coli LPS. As for the experimental part:
Cell supernatants were collected and stored at −20° C. […] Plasma was obtained by centrifuging at 400 g, 10 min and stored at −20° C. The TNF-α level was measured using a human TNF-Elisa Kit (Invitrogen).

For a further experiment, the system named is LPS-induced shock. Description: LPS model in vivo, E. coli LPS (Example B). Details: species or system C57BL/6 mice. As for the experimental part:
Male C57BL/6 mice (8 weeks, 21+/−5 g), were injected intraperitoneally with 18 mg E. coli 0111:B4 LPS or 36 mg P. aeruginosa LPS (Sigma) per kg of body weight. […] Survival and status was followed during seven days. For SEM and histochemistry, mice were sacrificed 20 h after LPS challenge, and lungs, liver, kidney, and spleen were removed and fixed. For determination of cytokine levels in mouse plasma, animals were sacrificed 8 h and 20 h after LPS injection. The blood was collected immediately by cardiac puncture. These experiments were approved by the Laboratory Animal Ethics Committee of Malmö/Lund.
Mouse blood (anti-coagulated with EDTA) was taken by cardiac puncture and analysed with the VetScan HM5 System (TRIOLAB). The number of white blood cells, percentages of lymphocytes, neutrophils, monocytes and platelets were determined.
(§1) The cytokines IL-6, IL-10, MCP-1, INF-γ, and TNF-α were measured in cell culture supernatants from RAW264.7 cells and plasma from mice injected with LPS or P. aeruginosa (with or without peptide treatment) using the Cytometric bead array; Mouse Inflammation Kit (Becton Dickinson AB) according to the manufacturer's instructions. All plasma samples were stored at −20° C. before the analysis.
For scanning electron microscopy lungs were taken 20 h after LPS injection. […] Specimens were washed with cacodylate buffer, and dehydrated with an ascending ethanol series from 50% (vv) to absolute ethanol. The specimens were then subjected to critical-point drying in carbon dioxide, with absolute ethanol as intermediate solvent, mounted, on aluminium holders, sputtered with 30 nm palladium/gold and examined in a JEOL JSM-350 scanning electron microscope

The test system of another experiment is human citrate plasma. Description: Clotting assays in plasma (aPTT, PT, TCT). The experiment is classed as biochemical. The settings on record: 20 μM peptide. As for the experimental part: (§2) All clotting times were analyzed using a coagulometer (Amelung, Lemgo, Germany). […] (PT-thromboplastin reagent (Trinity Biotech), TCT: Thrombin reagent (Technoclone)). To record the activated partial thromboplastin time (aPTT), 100 μl of a kaolin-containing solution (Technoclone) was add to the plasma-peptide mix and incubated for 200 sec before clot formation was initiated by adding 100 μl of 30 mM fresh CaCl2 solution. […] Cells were washed and resuspended in 100 μl PBS. Hundred microliter of fresh human citrate plasma were reconstituted with 100 μl of fresh 30 mM CaCl2 solution and pre-warmed for 60 sec. The clot formation was started by adding the hPBMNC. The same procedure was used to determine clotting times for whole blood.

In another experiment the test system is RAW 264.7 macrophages. In words: LPS effects on macrophages in vitro, NO production (Griess reaction). It is filed as cell-based, mouse. The settings on record: for effect on NO production of LPS-stimulated macrophages: RAW 264.7, LPS. Background: Nitrite, measured by Griess reagent, commonly stands in for NO production.
In a further experiment the test system is human monocytes. Description: Clotting time, LPS-stimulated human monocytes added to citrate plasma. The settings on record: concentrations similar to physiological thrombin (1.5 μM). The experiment is classed as cell-based. As for the experimental part: Whole blood was incubated with 10 ng/ml E. coli LPS+/−the indicated concentrations of peptide. The clotting reaction in human citrated plasma was initiated by adding the blood cells. […] Human monocytes were stimulated with LPS and/or peptides, and the clotting times were determined by adding the treated cells to human citrate plasma supplemented with CaCl2
as §2

In another experiment the test system is RAW 264.7 cells. Description: Cytokine release from LPS-stimulated RAW 264.7 cells. The experiment is classed as cell-based, mouse. The settings on record: 10 ng/ml E. coli LPS. As for the experimental part:
RAW 264.7 cells were stimulated with 10 ng/ml E. coli LPS and cytokines were analysed in the cell supernatants.
as §1

The test system of another experiment is E. coli. Description: Radial diffusion assay (RDA). It is filed as cell-based. As for the experimental part: Essentially as described earlier, bacteria were grown to mid-logarithmic phase in […] of full-strength (3% w/v) trypticase soy broth (TSB) (Becton-Dickinson). The microorganisms were then washed once with 10 mM Tris, pH 7.4. Subsequently, 4×10^8 cfu were added to 15 ml of the underlay agarose gel, consisting of 0.03% (w/v) TSB, 1% (w/v) low electroendosmosis type (EEO) agarose (Sigma-Aldrich) and 0.02% (v/v) Tween 20 (Sigma-Aldrich). The underlay was poured into a Ø 144 mm petri dish. After agarose solidification, 4 mm-diameter wells were punched and 6 μl peptide solution of required concentration added to each well. Plates were incubated at 37° C. for 3 h to allow peptide diffusion. The underlay gel was then covered with 15 ml of molten overlay (6% TSB and 1% Low-EEO agarose in distilled H2O). Antimicrobial activity of a peptide was visualized as a zone of clearing around each well after 18-24 h of incubation at 37° C.
Essentially as described earlier bacteria were grown to mid-logarithmic phase in 10 ml of full-strength (3% w/v) trypticase soy broth (TSB) (Becton-Dickinson, Cockeysville, Md.). The microorganisms were then washed once with 10 mM Tris, pH 7.4. […]

The next experiment concerns E. coli ATCC 25922. Description: Viable count assay. The settings on record: E. coli ATCC 25922, proteins and peptides at 3 and 6 μM. It is filed as cell-based.

Protocol for E. coli ATCC 25922: E. coli bacteria were grown to mid-logarithmic phase in Todd-Hewitt (TH) medium. They were then washed and diluted in 10 mM Tris, pH 7.4 containing 5 mM glucose. […] To quantify the bactericidal activity, serial dilutions of the incubation mixtures were plated on TH agar, followed by incubation at 37° C. overnight and the number of colony-forming units was determined. 100% survival was defined as total survival of bacteria in the same buffer and under the same condition in the absence of peptide.
E. coli ATCC 25922 bacteria were grown to mid-logarithmic phase in Todd-Hewitt (TH) medium. Bacteria were washed and re-suspended in 10 mM Tris, pH 7.4 containing 5 mM glucose. […] Serial dilutions of the incubation mixtures were plated on TH agar, followed by incubation at 37° C. overnight and cfu determination.
E. coli ATCC 25922 bacteria were grown to mid-logarithmic phase in Todd-Hewitt (TH) medium (Becton and Dickinson, Maryland, USA). The microorganisms were then washed and diluted in 10 mM Tris, pH 7.4 containing 5 mM glucose. […] To quantify the bactericidal activity, serial dilutions of the incubation mixtures were plated on TH agar, followed by incubation at 37° C. overnight and the number of colony-forming units was determined. […] Significance was determined using the statistical software SigmaStat (SPSS Inc., Chicago, Ill., USA).
Protocol for RAW 264.7 macrophages: 3.5×10^5 cells were seeded in 96-well tissue culture plates (Nunc, 167008) in phenol red-free DMEM (Gibco) supplemented with 10% FBS and antibiotics. Following 6 hours of incubation to permit adherence, cells were stimulated with 100 or 10 ng/mL E. coli (0111:B4) or P. aeruginosa LPS (Sigma), with and without peptide of various doses. The levels of NO in culture supernatants were determined after 24 hours from stimulation using the Griess reaction [38]. Briefly, nitrite, a stable product of NO degradation, was measured by mixing 50 μl of culture supernatants with the same volume of Griess reagent (Sigma, G4410) and reading absorbance at 550 nm after 15 min. Phenol-red free DMEM with FBS and antibiotics were used as a blank. A standard curve was prepared using 0-80 μM sodium nitrite solutions in ddH2O.
3.5×10^5 RAW 264.7 cells were seeded in 96-well tissue culture plates (Nunc no. 167008) in phenol red-free DMEM (Gibco) supplemented with 10% FBS containing 1% Anti-Anti (Invitrogen). […] The level of NO in culture supernatants was determined after a period of 20 hours using the Griess reaction (27)ref. Briefly, Nitrite, a stable product of NO degradation, was measured by mixing 50 μl of culture supernatants with the same volume of Griess reagent (Sigma, G4410), and reading absorbance at 550 nm after 15 min. Phenol-red free DMEM with FBS and antibiotics were used as a blank. A standard curve was prepared using sodium nitrite at 0-80 μM in ddH2O.
3.5×10^5 cells were seeded in 96-well tissue culture plates (Nunc, 167008) in phenol red-free DMEM (Gibco) supplemented with 10% FBS and antibiotics. […] The levels of NO in culture supernatants were determined after 24 hours from stimulation using the Griess reaction [25]. Briefly, nitrite, a stable product of NO degradation, was measured by mixing 50 μl of culture supernatants with the same volume of Griess reagent (Sigma, G4410) and reading absorbance at 550 nm after 15 min. […]

Turning to “HVFRLKKWIQKVIDQFGE (HVF18) [endogenously produced C-terminal thrombin peptide]”, the TNF-α production result in experiment [1] is listed as “damped TNF-α production”. Further, the weight result with LPS-induced shock (0.5 mg peptide, followed 7 days) is given as “full recovery of weight”. Also, in the experiment with LPS-induced shock (18 mg/kg E. coli LPS i.p., 0.5 mg peptide 30 minutes later), the “survival in LPS-induced shock” value came to 100%. For the same substance, the “proinflammatory IL-6, IFN-γ, TNF-α, MCP-1 in blood” value in the experiment with LPS-induced shock (8 and 20 h after LPS injection, 0.5 mg peptide) was “significant reductions”. In addition, the platelet counts entry in the experiment with LPS-induced shock (8 and 20 h after LPS, 0.5 mg peptide) is recorded as “significantly increased platelets”. Also, the IL-10 in blood result in the experiment with LPS-induced shock (8 h after LPS injection) was “increase in IL-10”. In the experiment on human citrate plasma, the “activated partial thromboplastin time (aPTT)” value is “significantly prolong”, the “prothrombin time (PT)” value is recorded as “not significantly affected” and the “thrombin clotting time (TCT)” value was “not significantly affected”. The “concentration completely eliminating LPS-induced NO-responses” value in the experiment on RAW 264.7 macrophages (RAW 264.7, 10 ng/ml LPS) is reported as “much higher doses”. The “clotting time with LPS-stimulated monocytes (TF-mediated coagulation)” value in the experiment with human monocytes is “less potent”. Moreover, the “effect on IL-10” value in the experiment on RAW 264.7 cells is reported as “significant up-regulation of IL-10”. For the same substance, in the experiment on RAW 264.7 cells (peptide 10 μM), the “effect on cytokines at 10 μM” value is “not”.
On to “VFRLKKWIQKVI (12-mer thrombin-derived peptide) [VFR12]”, for which, in the experiment on E. coli (E. coli ATCC 25922, 0.15M NaCl, peptide at 100 μM), the “bactericidal potency in RDA at high salt” value is given as “retained good bactericidal potency”. The “effect on NO production of LPS-stimulated macrophages” value with RAW 264.7 macrophages was “not able to block LPS effects”.
Regarding VFRLKKWIQKVIDQFGE (VFR17), the “antibacterial activity in viable count assay” value in the experiment with E. coli ATCC 25922 was “significant antibacterial activities”.
In the case of “WFFFYYLIIGGGVVTHQQRKKKKDE (WFF25 peptide) [control peptide, same composition as GKY25, amino acids sorted after hydrophobicity, reference compound]”, in the experiment on LPS-induced shock (500 μg i.p., followed 7 days), the “survival in LPS-induced shock” value is recorded as “does not increase survival”. Also, the “effect on NO production of LPS-stimulated macrophages” value with RAW 264.7 macrophages is “did not show anti-inflammatory effects”.
As for thrombin, in the experiment with E. coli (E. coli, low-salt conditions, not digested with neutrophil elastase), the “antimicrobial activity of intact protein in RDA” value is “inactive”.
